Reference: publication PMC9986241 (Signal Transduction and Targeted Therapy, 2023)
pKd: −log10 of the molar value.

Legend:
[1] = test system: SK-MEL-2, A375, SK-MEL-28, and HCT 116 cells; experiment: Anchorage-independent cell growth assay; assay type: cell-based, human; conditions: both BRAF and RAS mutant cell lines
Protocol: The synergism and antagonism (CI value) were determined and analyzed using CompuSyn 1.0.

[2] = target: MEK1 full length (Homo sapiens, UniProt Q02750); experiment: ITC assay; assay type: binding; conditions: PBS (0.1% DMSO, pH = 7.4), read-out: affinity (Kd)
Protocol: (§1) 293 T cells were transfected with plasmids of pcDNA3.1-3×Flag-C-MAP2K1/MAP2K1 (K97A, M146A), MAP2K2/MAP2K1 (K101A, M150A), or CRAF/CRAF (K375A). […]
(§2) The ITC experiment was performed on a MicroCal PEAQ-ITC. […] All proteins and erianin were diluted with PBS (0.1% DMSO, pH = 7.4), and deionized water was injected into the reference cell as a heat balance control. After 19 times titrations of erianin into the sample cell at a constant rate of 150 s, the titration curve was fitted with nonlinear least squares estimation model using Microcal ORIGIN V7.0.

[3] = target: T1, CRAF (306-end) (Homo sapiens, UniProt P04049); experiment: ITC assay; assay type: binding; conditions: PBS (0.1% DMSO, pH = 7.4), read-out: affinity (Kd)
T1 construct: purchased
Protocol: as §1, §2

[4] = target: MEK2 full length (Homo sapiens, UniProt P36507); experiment: ITC assay; assay type: binding; conditions: PBS (0.1% DMSO, pH = 7.4), read-out: affinity (Kd)
Protocol: as §1, §2

[5] = test system: SK-MEL-28 (BRAF V600E) CDX; experiment: Cell-derived xenograft (CDX); conditions: 50 mg/kg, oral gavage
Protocol: (§3) Tumor volume (mm^3) = (length × width × height) × 0.52. SK-MEL-2: n = 10; A375 and SK-MEL-28: n = 8; HCT116: n = 9. b The photographs show tumors from CDX mice treated with vehicle, erianin, vemurafenib, or the combination. c The weight of the tumors was quantified and expressed as the treatment groups compared with the vehicle-treated group. […] The tissue lysates were prepared from CDX tumor tissues in each treatment group. […] Each point represents the IOD values of four quantified data from one mouse. Scale bars: 50 μm.
(§4) The animal experiments were performed according to the guidelines approved by the Zhengzhou University Institutional Animal Care and Use Committee. A375 cell line (1 × 10^7 cell/mouse), SK-MEL-28 cell line (5 × 10^6 cell/mouse), SK-MEL-2 cell (5 × 10^6 cell/mouse), and HCT116 cell line (1 × 10^7 cell/mouse) were injected subcutaneously into the NOD-SCID mice (Vital River Labs, Beijing, China). For the melanoma PDX mice model, the tumor was taken after surgical operation and implanted into the NPG (Vital River Labs, Beijing, China) mice under a sterile environment. For the colorectal cancer PDX mice model, NOD-SCID mice were selected as carriers for tumor growth. The measurement of tumor size was performed twice a week using vernier caliper and the calculation of tumor volume was done according to tumor volume (mm^3) = length × width × height × 0.52.

[6] = test system: A375 (BRAF V600E) CDX; experiment: Cell-derived xenograft (CDX); conditions: 50 mg/kg, oral gavage
Protocol: as §3, §4

[7] = test system: melanoma PDX; experiment: Patient-derived xenograft (PDX); assay type: in vivo
Protocol: Fig. 7 Erianin exerts antitumor efficacy in melanoma and colorectal cancer in vivo. a Tumor pharmacodynamic assay was performed in tumor-bearing NPG mice (tumor has been passaged from melanoma patient to mice for three generations). The photographs show tumors from melanoma PDX mice treated with vehicle or drugs. b The effect of erianin on the volume of PDX tumors over time (within 78 days) was plotted. Vehicle, erianin (50 mg/kg, once a day), vemurafenib (50 mg/kg, once a day), erianin and vemurafenib combination therapy, cobimetinib (5 mg/kg, twice a week) or vemurafenib and cobimetinib combination therapy (once a day and twice a week, respectively) were administered by oral gavage, n = 8 in each group. Tumor volume was measured once a week. […] Scale bars: 20 μm. One-way ANOVA test. ***p < 0.001. e Antitumor efficacy of erianin with or without immunity using B16F10 cell xenograft in C57BL-6J mouse. f, g Trend of tumor volume over time and tumor weight was measured after treatment on the last day of the study.

T1 sequence (P04049 306-648 limits assumed): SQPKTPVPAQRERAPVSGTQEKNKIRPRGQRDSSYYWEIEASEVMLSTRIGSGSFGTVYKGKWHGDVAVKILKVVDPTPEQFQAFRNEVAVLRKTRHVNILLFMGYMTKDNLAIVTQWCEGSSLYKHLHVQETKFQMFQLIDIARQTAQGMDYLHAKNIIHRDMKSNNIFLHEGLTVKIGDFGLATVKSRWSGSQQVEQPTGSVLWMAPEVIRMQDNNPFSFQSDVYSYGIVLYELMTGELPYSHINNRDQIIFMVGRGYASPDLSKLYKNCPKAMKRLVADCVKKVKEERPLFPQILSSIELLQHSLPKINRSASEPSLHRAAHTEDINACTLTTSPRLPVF
Chain of MEK2 full length (P36507 whole entry): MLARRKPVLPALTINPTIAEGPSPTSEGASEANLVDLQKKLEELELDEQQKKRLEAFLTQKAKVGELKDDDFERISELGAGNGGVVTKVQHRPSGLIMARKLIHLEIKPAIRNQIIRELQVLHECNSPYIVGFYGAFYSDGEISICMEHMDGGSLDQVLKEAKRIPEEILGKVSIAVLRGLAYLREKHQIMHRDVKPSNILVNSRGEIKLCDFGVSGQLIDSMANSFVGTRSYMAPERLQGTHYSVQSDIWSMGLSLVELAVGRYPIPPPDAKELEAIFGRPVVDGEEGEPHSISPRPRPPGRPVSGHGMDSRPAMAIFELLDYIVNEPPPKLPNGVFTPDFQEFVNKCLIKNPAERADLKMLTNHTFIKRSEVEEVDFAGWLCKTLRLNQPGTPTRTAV
Chain of MEK1 full length (Q02750 whole entry): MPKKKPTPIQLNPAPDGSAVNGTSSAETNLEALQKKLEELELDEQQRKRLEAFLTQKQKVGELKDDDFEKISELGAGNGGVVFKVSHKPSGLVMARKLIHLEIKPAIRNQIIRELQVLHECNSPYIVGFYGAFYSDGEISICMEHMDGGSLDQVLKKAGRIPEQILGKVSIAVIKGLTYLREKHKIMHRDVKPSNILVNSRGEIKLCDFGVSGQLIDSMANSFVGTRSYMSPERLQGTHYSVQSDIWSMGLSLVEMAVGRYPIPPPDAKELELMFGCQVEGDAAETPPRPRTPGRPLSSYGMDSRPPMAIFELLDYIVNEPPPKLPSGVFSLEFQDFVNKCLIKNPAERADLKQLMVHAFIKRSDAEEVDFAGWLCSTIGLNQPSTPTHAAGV

## COc1ccc(CCc2cc(OC)c(OC)c(OC)c2)cc1O [Erianin]
[1]
  colonies formation: markedly suppress
[2]
  pKd: 4.23
[3]
  pKd: 4.34
[4]
  pKd: 4.00
[5]
  body weight: no significant reduction
[5]; vs vehicle-treated group
  tumor volume: significant decrease
[6]
  body weight: no significant reduction
[6]; vs vehicle-treated group
  tumor volume: significant decrease
[7]; 50 mg/kg once a day, oral gavage
  body weight: without significant changes
[7]; HE staining of liver and spleen
  toxicity sign (HE staining): neither erianin group nor erianin-vemurafenib combination therapy showed toxicity sign
[7]; oral gavage, erianin, vemurafenib 50 mg/kg once a day, cobimetinib 5 mg/kg twice a week, within 78 days
  tumor volume: significant decrease
